Assay results reported in patent US20130137741A1 (ALCON RESEARCH, LTD., priority 2009, published 2013).

Tested on: FGFR
Experiment: Kinase inhibition, cell-free enzymatic assay
Type: biochemical
Conditions: 1 mM ATP

IC50: > 12.5 µM
SMILES: Cc1ccc(F)c(NC(=O)Nc2ccc(-c3cccc4[nH]nc(N)c34)cc2)c1 [RTK Inhibitor, N-[4-(3-amino-1H-indazol-4-yl)phenyl]-N′-(2-fluoro-5-methylphenyl) urea]
